Experimental data from patent US10179914B2, “CDC25A inhibitor for the treatment of drug resistant cancer or for the prevention of tumor relapse” (INSERM (INSTITUT NATIONAL DE LA SANTÉ ET DE LA RECHERCHE …, priority 2014, dated 2019).

Tests used:
[1] = test system: KG1 cells (FLT3 wild type); test: Cell proliferation, trypan blue counting, KG1; format: cell-based, human
Experimental: (a) MV4-11 and MOLM-14 FLT3-ITD positive cells, KG1, HL-60 and TF-1 FLT3 wild type cells, and K562 FLT3 negative cells were cultured in the presence of the CDC25 inhibitor IRC-083864 (200 nM). Cells were harvested each day and counted after trypan blue coloration. The graph represents three independent experiments.
Cell lines and reagents. Human acute myeloid leukemia cell lines MOLM-14 (Matsuo Y et al, Leukemia 1997) (kindly provided by Martin Carroll, University of Pennsylvania, Philadelphia, Pa., USA) MV4-11, K562 (ACC-102 and ACC-10, DSMZ, Braunschweig, Germany) and FLT3-ITD-expressing murine BaF3 cells were cultured in RPMI 1640 medium (Gibco, Life Technologies, Carlsbad, Calif., USA) supplemented with 10% fetal bovine serum (Sigma, Saint Louis, Calif., USA). TF-1 (ATCC-CRL2003) cells were cultured in RPMI 1640 medium with 10% fetal bovine serum and GM-CSF 2 ng/ml. Concerning MOLM-14 cell line, the presence of a monoallelic 21 bp FLT3-ITD mutation and of an MLL-containing ins(11; 9)(q23;p22p23) were verified (Hematology laboratory of Toulouse University Hospital, Prof E. Delabesse and Dr I. Luquet). KG1 and HL-60 (ACC-14 and ACC-3, DSMZ) cell lines were grown in Iscove's Modified Dulbecco's Medium (IMDM, Gibco) plus 20% FBS. […]
siRNA. […] Twenty-four or forty-eight hours after transfection, cells were counted (trypan blue staining), and western blotting was performed.

[2] = test system: C/EBPα Ser21 phosphorylation, c-myc, C/EBPε; test: Western blot of differentiation markers in MOLM-14; format: cell-based, human; conditions: MOLM-14, 100 nM
Experimental: (a-b) MOLM-14 and MV4-11 cells were treated for different times with IRC-083864 (100 nM and 200 nM) and the expression of the cell surface markers CD11b, CD14 and CD15 were followed by flow cytometry analysis. (c) MOLM-14 and MV4-11 cells were treated for different times with IRC-083864 (100 nM) and morphological changes were estimated by microscopy after cells were cytospun and stained at days 8 and 13. Original magnification ×100. (d) MOLM-14 cells were treated for different times with IRC-083864 (100 nM) and c-myc expression as well as C/EBPα phosphorylation on serine 21 were analyzed by western blot at day 1, and C/EBPε expression after 6 days of treatment. (e) MOLM-14 cells were transfected with CDC25A shRNA The expression of the cell surface markers CD11b, CD14 and CD15 were followed by flow cytometry analysis at day 3 and 6 (upper panel), and their morphology was analyzed by microscopy after 6 days (lower panel). Original magnification ×100. (f) MOLM-14 cells were transfected with CDC25A siRNA, and their morphology was analyzed by microscopy after 3 days (upper panel). Original magnification ×100. The efficiency of CDC25A siRNA was assessed by western blot analysis (lower panel).
Western blot. 2×10^6 cells were usually lysed in 100 μL of NuPAGE® LDS Sample Buffer (Novex, Life Technologies, Carlsbad, Calif., USA), sonicated for 15 seconds, and boiled for 3 minutes. Proteins were then resolved on NuPAGE® 4-12% Bis-Tris Gels and transferred to nitrocellulose membrane. Saturation of the membrane was done for 1 hour in Tris Buffer Saline with Tween 0.1% (TBS-T) containing 5% non-fat milk or 5% bovine serum albumin. Membranes were blotted with proper antibodies overnight at 4° C., washed thrice with TBS-T, and incubated for 30 minutes with HRP-conjugated secondary antibody (Promega, Madison, Wis., USA). […]

Cc1nc2c(s1)C(=O)C=C(NCCCN(C)CCCNC1=CC(=O)c3nc(-c4cc(F)ccc4F)oc3C1=O)C2=O [IRC-083864]
proliferation of KG1 ([1]; 200 nM): did not decrease | proliferation of KG1 upon stimulation by FLT3 ligand ([1]; FLT3 ligand stimulation): had no effect | C/EBPα phosphorylation on serine 21 ([2]; day 1): dephosphorylation | c-myc expression ([2]; day 1): down-regulation | C/EBPε expression ([2]; day 6): up-regulation
